Literature values in patent US6635277B2, “Composition for pulsatile delivery of diltiazem and process of manufacture” (Wockhardt Limited, priority 2000, dated 2003).

Conditions: in 0.1N HCl

Fraction ionized: 10%
SMILES: CCCCCCCCCCCCOS(=O)(=O)[O-].[Na+] [sodium lauryl sulfate]
